Data on one molecule can be found in US20080119488A1, “Modulators Of Nuclear Receptors” (EXELIXIS, INC., priority 2004, published 2008).

The target in this assay is T1, LXRα or LXRβ.
T1 construct: fused on or other part: N-terminal poly-His tag from the pBacPakhis1 vector
The assay can be described thus: Saturation binding of [3H] 24,25 epoxycholesterol (EC) to the receptor. More on the design: species or system human. The note with it: as determined by saturation binding; typical value used for the Cheng and Prusoff equation. How it is done:
The SPA assay measures the radioactive signal generated by the binding of ^3H-24,25-epoxycholesterol to LXRα or LXRβ. The basis of the assay is the use of SPA beads containing a scintillant, such that when binding to the receptor brings the labeled ligand into proximity with the bead, the energy from the label stimulates the scintillant to emit light. The light is measured using a standard microplate scintillation reader. The ability of a ligand to bind to a receptor can be measured by assessing the degree to which the compound can compete off a radiolabelled ligand with known affinity for the receptor.
For this assay, typically the Concentration of Ligand=50 nM and the Kd of EC for the receptor is 200 nM as determined by saturation binding.

A word on the Kd: it is a measure of binding affinity in units of concentration.

Molecule `C[C@H](CCC1OC1(C)C)[C@H]1CC[C@H]2[C@@H]3CC=C4C[C@@H](O)CC[C@]4(C)[C@H]3CC[C@]12C` (stereo partly shown) [EC, 24,25 Epoxycholesterol] came in with a Kd of 0.2 µM.
